Test system: brown rust of wheat (Puccinia recondita)
Test: Protective treatment against brown rust of wheat (plants sprayed the day before inoculation)
Format: in vivo, Puccinia recondita on wheat seedlings cultivar "Kanzler"
Settings: 63 ppm active compound, assessed visually after a further 7 days in greenhouse, untreated 90
Procedure: The active compounds were prepared as a stock solution comprising 0.25% by weight of active compound in acetone or dimethyl sulfoxide (DMSO). 1% by weight of the emulsifier Uniperol® EL (wetting agent having emulsifying and dispersant action based 10 on ethoxylated alkylphenols) was added to this solution, and the mixture was diluted with water to the desired concentration.
Leaves of potted wheat seedlings of the cultivar “Kanzler” were sprayed to runoff point with an aqueous suspension having the concentration of active compound stated below. The next day, the treated plants were dusted with spores of brown rust of wheat (Puccinia recondita). The plants were then placed in a chamber with high atmospheric humidity (90 to 95%), at 20-22° C., for 24 hours. During this time, the spores germinated and the germinal tubes penetrated into the leaf tissue. The next day, the test plants were returned into the greenhouse and cultivated at temperatures between 20 and 22° C. and at 65 to 70% relative atmospheric humidity for a further 7 days. The extent of the rust development on the leaves was then determined visually.

## CC(=NOCc1ccccc1)C(C)Oc1ccccc1NC(=O)c1cccnc1Cl (stereo not shown) [IA-1, 2-Chloro-N-(2-(2-benzyloxyimino-1-methyl-n-propoxy)phenyl)nicotinamide]
  Infection at 63 ppm (% of leaf area): 10 % of leaf area
